Source: ChEMBL document CHEMBL6182936, “Discovery of KDX1381, a Bivalent CK2α Inhibitor for the Treatment of Solid Tumors as a Single Agent or in Combination” (J Med Chem, 2025)
≈ marks a conversion by molar mass, not a printed value. Calls of active or inactive are those of the source. No cut-off for these calls is given here.

Assays:
[1] = tested on: 786-0; test: cells; details: Homo sapiens, 786-0, 72 h
[2] = in vitro; details: mouse, hepatocytes
[3] = physchem; details: PBS buffer, pH 7.4
[4] = tested on: 786-0; test: cells; details: Homo sapiens
[5] = tested on: SK-BR-3; test: cells; details: Homo sapiens
[6] = tested on: 786-0; test: cells; details: Homo sapiens; remark: listed apart in the source
[7] = tested on: SK-BR-3; test: cells; details: Homo sapiens; remark: listed apart in the source
[8] = physchem
[9] = tested on: 786-0; test: cells; details: Homo sapiens, 786-0, 72 h, read-out: Activity
[10] = tested on: HCT-116; test: cells; details: Homo sapiens, HCT-116, 72 h, read-out: Activity
[11] = tested on: 786-0; test: cells; details: Homo sapiens, 786-0, 72 h, read-out: Activity; remark: listed apart in the source
[12] = tested on: Hep 3B2; test: animal or person; details: Mus musculus, Hep3B, po, read-out: TGI
[13] = tested on: A-375; details: Homo sapiens, dose 5-40 mg/kg, route ip
[14] = tested on: 786-0; details: Homo sapiens, dose 20.0 mg/kg, route po, time 28.0 day
[15] = tested on: 786-0; test: cells; details: Homo sapiens, 786-0, 72 h, read-out: Activity; remark: listed apart in the source
[16] = tested on: 786-0; test: cells; details: Homo sapiens, 786-0, 72 h, read-out: Activity; remark: listed apart in the source
[17] = in vivo; details: CD-1, mouse, iv, 1 mg/kg
[18] = in vivo; details: CD-1, mouse, iv, 1 mg/kg; remark: listed apart in the source
[19] = in vivo; details: CD-1, mouse, iv, 1 mg/kg; remark: listed apart in the source
[20] = in vivo; details: CD-1, mouse, ip, 40 mg/kg
[21] = in vivo; details: CD-1, mouse, ip, 40 mg/kg; remark: listed apart in the source
[22] = in vivo; details: CD-1, mouse, ip, 40 mg/kg; remark: listed apart in the source
[23] = in vivo; details: CD-1, mouse, ip, 40 mg/kg; remark: listed apart in the source
[24] = physchem; details: PBS buffer, pH 7.4; remark: listed apart in the source
[25] = physchem; details: FaSSIF, pH 6.5
[26] = physchem; details: NCl, pH 1.2
[27] = tested on: 786-0; test: animal or person; details: Mus musculus, 786-0, 384 h, read-out: TGI
[28] = tested on: Hep 3B2; test: animal or person; details: Mus musculus, Hep3B, po, read-out: TGI; remark: listed apart in the source
[29] = tested on: Hep 3B2; test: animal or person; details: Mus musculus, Hep3B, po, read-out: TGI; remark: listed apart in the source
[30] = animal or person; details: Homo sapiens, SF767, po, 1152 h, read-out: TGI
[31] = animal or person; details: Homo sapiens, SF767, po, 1152 h, read-out: TGI; remark: listed apart in the source
[32] = animal or person; details: Homo sapiens, SF767, po, 1152 h, read-out: TGI; remark: listed apart in the source

SMILES: COc1cccc(OC)c1-c1ccc(S(=O)(=O)NCCN2CCC(Cn3cc(-c4c(C(C)=O)[nH]c5ccc(F)cc45)nn3)CC2)cc1
- IC50 [1]: > 10 µM
- remaining at 0.5 h [2]: 67%
- solubility at 24 h [3]: 8 µg/mL (≈ 12.1 µM)

SMILES: CC(C)COC(=O)c1[nH]c2ccc(F)cc2c1-c1cn(CC2CCN(CCNS(=O)(=O)c3ccc(CC(C)C)cc3)CC2)nn1
- IC50 [4]: 14.8 µM
- IC50 [5]: 8.9 µM
- IC50 [6]: 14.8 µM
- IC50 [7]: 8.9 µM
- IC50 [1]: > 10 µM
- solubility [8]: < 0.5 µg/mL
- remaining at 0.5 h [2]: < 10%
- solubility at 24 h [3]: < 0.5 µg/mL

SMILES: COc1cccc(F)c1-c1ccc(S(=O)(=O)NCCN2CCC(Cn3cc(-c4c(C(C)=O)[nH]c5ccc(F)cc45)nn3)CC2)cc1
- IC50 [1]: > 10 µM
- remaining at 0.5 h [2]: 48%
- solubility at 24 h [3]: 5.4 µg/mL (≈ 8.32 µM)

SMILES: CC(=O)c1[nH]c2ccc(F)cc2c1-c1cn(CC2CCN(CCNS(=O)(=O)c3ccc(-c4c(O)cccc4F)c(C(F)(F)F)c3)CC2)nn1
- IC50 [1]: 3.6 µM
- remaining at 0.5 h [2]: < 10%
- solubility at 24 h [3]: 1.1 µg/mL (≈ 1.57 µM)

SMILES: CC(=O)c1[nH]c2ccc(F)cc2c1-c1cn(CC2CCN(CCNS(=O)(=O)c3ccc(-c4c(O)cccc4F)c(C)c3)CC2)nn1
- IC50 [1]: 6.6 µM
- remaining at 0.5 h [2]: 27%
- solubility at 24 h [3]: 3.4 µg/mL (≈ 5.24 µM)

SMILES: CC(C)Cc1ccc(S(=O)(=O)NCCN2CCC(Cn3cc(-c4c(C(=O)C(C)C)[nH]c5ccc(F)cc45)nn3)CC2)cc1
- IC50 [1]: > 10 µM
- remaining at 0.5 h [2]: 15%
- solubility at 24 h [3]: 0.9 µg/mL (≈ 1.48 µM)

SMILES: CC(=O)c1[nH]c2ccc(F)cc2c1-c1cn(CC2CCN(CCNS(=O)(=O)c3ccc(-c4ccccc4O)cc3)CC2)nn1
- IC50 [1]: 0.9 µM
- remaining at 0.5 h [2]: 46%
- solubility at 24 h [3]: 18.5 µg/mL (≈ 30 µM)

SMILES: O=C(O)c1ccc2c(c1)nc(Nc1cccc(Cl)c1)c1ccncc12 [SILMITASERTIB]
- viability at 10 µM [9]: 93.5%
- viability at 10 µM [10]: 69.2%

SMILES: CC(C)Cc1ccc(S(=O)(=O)NCCN2CCC(Cn3cc(-c4c(C(=O)C5CC5)[nH]c5ccc(F)cc45)nn3)CC2)cc1
- IC50 [1]: > 10 µM
- solubility at 24 h [3]: < 0.5 µg/mL

SMILES: COc1cccc(OC)c1-c1ccc(S(=O)(=O)NCCN2CCC(Cn3cc(-c4c(C(C)=O)[nH]c5ccc(F)cc45)nn3)CC2)cc1C
- IC50 [1]: 1.7 µM
- remaining at 0.5 h [2]: 44%
- solubility at 24 h [3]: 1.9 µg/mL (≈ 2.82 µM)

SMILES: CC(=O)c1[nH]c2ccc(F)cc2c1-c1cn(CC2CCN(CCNS(=O)(=O)c3ccc(CC(C)C)cc3)CC2)nn1
- IC50 [1]: 3.2 µM
- remaining at 0.5 h [2]: 53%
- solubility at 24 h [3]: 10.4 µg/mL (≈ 17.9 µM)

SMILES: COc1ccccc1-c1ccc(S(=O)(=O)NCCN2CCC(Cn3cc(-c4c(C(C)=O)[nH]c5ccc(F)cc45)nn3)CC2)cc1C
- IC50 [1]: 2.9 µM

SMILES: CSc1ccccc1-c1ccc(S(=O)(=O)NCCN2CCC(Cn3cc(-c4c(C(C)=O)[nH]c5ccc(F)cc45)nn3)CC2)cc1C
- IC50 [1]: > 10 µM
- remaining at 0.5 h [2]: 26%
- solubility at 24 h [3]: < 0.5 µg/mL

SMILES: CC(=O)c1[nH]c2ccc(F)cc2c1-c1cn(CC2CCN(CCNS(=O)(=O)c3ccc(-c4c(O)cccc4F)c(Cl)c3)CC2)nn1
- IC50 [1]: > 10 µM
- solubility at 24 h [3]: < 0.5 µg/mL

SMILES: CNC(=O)c1cc(Oc2ccc(NC(=O)Nc3ccc(Cl)c(C(F)(F)F)c3)cc2)ccn1 [SORAFENIB]
- viability at 4.5 µM [11]: 88%
- inhibition in vivo at 40 mg/kg [12]: 29%

SMILES: CC(C)Cc1ccc(S(=O)(=O)NCCN2CCC(Cn3cc(-c4c[nH]c5ccccc45)nn3)CC2)cc1
- IC50 [1]: 5.9 µM
- remaining at 0.5 h [2]: 18%
- solubility at 24 h [3]: 2.7 µg/mL (≈ 5.19 µM)

SMILES: CC(=O)c1[nH]c2ccc(F)cc2c1-c1cn(CC2CCN(CCNS(=O)(=O)c3ccc(-c4c(O)cccc4F)cc3)CC2)nn1
- TGI [13]: Active
- TGI [14]: Active
- IC50 [1]: 0.8 µM
- viability at 10 µM [9]: 12.7%
- viability at 10 µM [10]: 85.1%
- viability at 1 µM [15]: 90.4%
- viability at 1 µM [16]: 25%
- clearance at 24 h [17]: 60.5 mL/min/kg
- Vd at 24 h [18]: 5.9 L/kg
- half-life at 24 h [19]: 67.8 min
- AUC(0-inf) at 24 h [20]: 8640 ng·h/mL
- Cmax at 24 h [21]: 2700 ng/mL
- Tmax at 24 h [22]: 1.33 h
- bioavailability at 24 h [23]: > 100%
- remaining at 0.5 h [2]: 42%
- solubility at 24 h [3]: 10.7 µg/mL (≈ 16.9 µM)
- solubility [24]: 1.7 µg/mL (≈ 2.68 µM)
- solubility [25]: > 100 µg/mL
- solubility [26]: 28.2 µg/mL (≈ 44.4 µM)
- inhibition in vivo at 40 mg/kg [27]: 90%
- inhibition in vivo at 30 mg/kg [28]: 95%
- inhibition in vivo at 30 mg/kg [29]: 74%
- inhibition in vivo at 40 mg/kg [30]: 77%
- inhibition in vivo at 40 mg/kg [31]: 103%

SMILES: CC(=O)c1[nH]c2ccc(F)cc2c1-c1cn(CC2CCN(CCNS(=O)(=O)c3ccc(-c4cccc5ccsc45)cc3)CC2)nn1
- IC50 [1]: > 10 µM

SMILES: Cn1nnc2c(C(N)=O)ncn2c1=O [TEMOZOLOMIDE]
- inhibition in vivo at 20 mg/kg [32]: 67%

SMILES: CC(=O)c1[nH]c2ccc(F)cc2c1-c1cn(CC2CCN(CCNS(=O)(=O)c3ccc(-c4c(O)cccc4Cl)cc3)CC2)nn1
- IC50 [1]: 3.3 µM
- solubility at 24 h [3]: < 0.5 µg/mL

SMILES: CC(=O)c1[nH]c2ccc(F)cc2c1-c1cn(CC2CCN(CCNS(=O)(=O)c3ccc(-c4c(F)cccc4C(F)(F)F)cc3)CC2)nn1
- IC50 [1]: > 10 µM
- solubility at 24 h [3]: < 0.5 µg/mL

SMILES: CC(=O)c1[nH]c2ccc(F)cc2c1-c1cn(CC2CCN(CCNS(=O)(=O)c3ccc(-c4c(O)cccc4F)c(C#N)c3)CC2)nn1
- solubility at 24 h [3]: 25.5 µg/mL (≈ 38.7 µM)

SMILES: COc1cc(S(=O)(=O)NCCN2CCC(Cn3cc(-c4c(C(C)=O)[nH]c5ccc(F)cc45)nn3)CC2)ccc1-c1c(O)cccc1F
- IC50 [1]: > 10 µM
- remaining at 0.5 h [2]: 39%
- solubility at 24 h [3]: 3.2 µg/mL (≈ 4.81 µM)

SMILES: CCOC(=O)c1[nH]c2ccc(F)cc2c1-c1cn(CC2CCN(CCNS(=O)(=O)c3ccc(CC(C)C)cc3)CC2)nn1
- IC50 [1]: > 10 µM
- remaining at 0.5 h [2]: < 10%
- solubility at 24 h [3]: < 0.5 µg/mL

SMILES: CC(C)Cc1ccc(S(=O)(=O)NCCN2CCC(Cn3cc(-c4c[nH]c5ccc(F)cc45)nn3)CC2)cc1
- IC50 [1]: 6.8 µM
- remaining at 0.5 h [2]: 25%
- solubility at 24 h [3]: 1.5 µg/mL (≈ 2.78 µM)
